Reference: paper PMC7504751, “Potential of 2-Chloro-N-(4-fluoro-3-nitrophenyl)acetamide Against Klebsiella pneumoniae and In Vitro Toxicity Analysis” (Molecules, 2020)
Values after ≈ are worked out from the molar mass of the structure shown. Where two headings read alike, the source gives them in different places.

What was measured:
K. pneumoniae strains = test: Minimum bactericidal concentration (MBC); format: cell-based, Klebsiella pneumoniae; details: for Effect: from MBC/MIC ratio
Experimental: The clinical isolates strains of K. pneumoniae were used in this study belong to the MICOTECA of the Antibacterial and Antifungal Activity Research Laboratory of the Federal University of Paraíba, Brazil, which are: KP-25, KP-26, KP-56, KP-83, KP-87, KP-138, KP-143, KP-166, KP-173, KP-176, KP-260, and KP-326. The American Type Culture Collection strain ATCC-700603 was used as controls. For use in the assays, bacterial suspensions were prepared in 0.9% saline solution, from fresh cultures, and adjusted to the McFarland standard 0.5 scale.
After MIC reading, the A2 minimum bactericidal concentration was determined by removing aliquots from the microdilution plates in the wells corresponding to concentrations equivalent to MIC, 2× MIC, 4× MIC, and 8× MIC and inoculating in new plates containing only culture broth. All controls were performed in parallel. MBC is defined as the lowest concentration capable of causing complete inhibition of bacterial growth after 24 h at 35 ± 2 °C [21, 44].

Hemolytic activity = format: cell-based; details: human, 0.5% red blood cell suspension
Experimental: The tests were performed according to the recommendations established by the Code of Ethics of the World Medical Association, after approval by the ethics committee of the Centro Universitário de Patos (number: 3621284). Blood samples (types A, B, and O) and smears of oral mucosa were donated by young, healthy adults.
The red blood cell (RBC) samples from blood donors were diluted in 0.9% NaCl at a 1:30 ratio and centrifuged at 2500 rpm for five minutes to obtain the 0.5% suspension free of white blood cells and platelets. Then, the A2 substance was added to the red blood cell suspensions, at 50, 100, 500, and 1000 µg/mL concentrations. As controls, a suspension of red cells without treatment (0% hemolysis) were used as a negative control and a suspension of red cells treated with 1% Triton X-100 (100% hemolysis) as a positive control. The assay was incubated for one hour at 22 ± 2 °C. After that time, the samples were centrifuged at 700× g for 5 min and hemolysis was quantified by spectrophotometry at a wavelength of 540 nm.

O=C(CCl)Nc1ccc(F)c([N+](=O)[O-])c1 [A2, 2-chloro-N-(4-fluoro-3-nitrophenyl)acetamide]
MBC (K. pneumoniae strains; Klebsiella pneumoniae, ATCC700603, strain ATCC-700603, read-out: MBC): 512 µg/mL (≈ 2200 µM)
MBC (K. pneumoniae strains; Klebsiella pneumoniae, all K. pneumoniae strains used in this study, read-out: MBC): 512 µg/mL (≈ 2200 µM)
mode of action (bactericidal / bacteriostatic) (K. pneumoniae strains; all K. pneumoniae strains, from the MIC): bactericidal
Effect (K. pneumoniae strains; strain ATCC-700603): Bactericide (bactericidal activity when the ratio between MBC and MIC is ≤4)
MBC (K. pneumoniae strains; strain KP-25): 512 µg/mL (≈ 2200 µM)
Effect (K. pneumoniae strains; strain KP-25): Bactericide (bactericidal activity when the ratio between MBC and MIC is ≤4)
MBC (K. pneumoniae strains; strain KP-26): 512 µg/mL (≈ 2200 µM)
Effect (K. pneumoniae strains; strain KP-26): Bactericide (bactericidal activity when the ratio between MBC and MIC is ≤4)
MBC (K. pneumoniae strains; strain KP-56): 512 µg/mL (≈ 2200 µM)
Effect (K. pneumoniae strains; strain KP-56): Bactericide (bactericidal activity when the ratio between MBC and MIC is ≤4)
MBC (K. pneumoniae strains; strain KP-83): 512 µg/mL (≈ 2200 µM)
Effect (K. pneumoniae strains; strain KP-83): Bactericide (bactericidal activity when the ratio between MBC and MIC is ≤4)
MBC (K. pneumoniae strains; strain KP-87): 512 µg/mL (≈ 2200 µM)
Effect (K. pneumoniae strains; strain KP-87): Bactericide (bactericidal activity when the ratio between MBC and MIC is ≤4)
MBC (K. pneumoniae strains; strain KP-138): 512 µg/mL (≈ 2200 µM)
Effect (K. pneumoniae strains; strain KP-138): Bactericide (bactericidal activity when the ratio between MBC and MIC is ≤4)
MBC (K. pneumoniae strains; strain KP-143): 512 µg/mL (≈ 2200 µM)
Effect (K. pneumoniae strains; strain KP-143): Bactericide (bactericidal activity when the ratio between MBC and MIC is ≤4)
MBC (K. pneumoniae strains; strain KP-166): 512 µg/mL (≈ 2200 µM)
Effect (K. pneumoniae strains; strain KP-166): Bactericide (bactericidal activity when the ratio between MBC and MIC is ≤4)
MBC (K. pneumoniae strains; strain KP-173): 512 µg/mL (≈ 2200 µM)
Effect (K. pneumoniae strains; strain KP-173): Bactericide (bactericidal activity when the ratio between MBC and MIC is ≤4)
MBC (K. pneumoniae strains; strain KP-176): 512 µg/mL (≈ 2200 µM)
Effect (K. pneumoniae strains; strain KP-176): Bactericide (bactericidal activity when the ratio between MBC and MIC is ≤4)
MBC (K. pneumoniae strains; strain KP-260): 512 µg/mL (≈ 2200 µM)
Effect (K. pneumoniae strains; strain KP-260): Bactericide (bactericidal activity when the ratio between MBC and MIC is ≤4)
MBC (K. pneumoniae strains; strain KP-326): 512 µg/mL (≈ 2200 µM)
Effect (K. pneumoniae strains; strain KP-326): Bactericide (bactericidal activity when the ratio between MBC and MIC is ≤4)
hemolysis at 1 h (Hemolytic activity; blood types A, B and O, 50–500 µg/mL, all tested blood types, 1 h at 22 ± 2 °C): 4 to 20%
hemolysis at 1 h, 1000 µg/mL (Hemolytic activity; blood type O, read-out: hemolysis (average erythrocyte lysis)): 8%
hemolysis at 1 h, 1000 µg/mL (Hemolytic activity; blood types A and B, read-out: hemolysis): 37 to 47%
